Calls of active or inactive are those of the source. The rule behind the calls is not given here.
Legend:
[1] = system: HeLa; test: Upregulation of GCNA mRNA expression in human HeLa cells at 0.1 uM after 24 hrs by RT-qPCR analysis; assay type: functional, cell-based
[2] = system: HeLa; test: Upregulation of NBPF10 mRNA expression in human HeLa cells at 0.1 uM after 24 hrs by RT-qPCR analysis; assay type: functional, cell-based
[3] = system: HeLa; test: Upregulation of OASL mRNA expression in human HeLa cells at 0.1 uM after 24 hrs by RT-qPCR analysis; assay type: functional, cell-based
[4] = system: HeLa; test: Upregulation of IFIT2 mRNA expression in human HeLa cells at 0.1 uM after 24 hrs by RT-qPCR analysis; assay type: functional, cell-based
[5] = system: HeLa; test: Upregulation of SULT4A1 mRNA expression in human HeLa cells at 0.1 uM after 24 hrs by RT-qPCR analysis; assay type: functional, cell-based
[6] = system: HeLa; test: Downregulation of STK39 mRNA expression in human HeLa cells at 0.1 uM after 24 hrs by RT-qPCR analysis; assay type: functional, cell-based
[7] = system: HeLa; test: Downregulation of CERS5 mRNA expression in human HeLa cells at 0.1 uM after 24 hrs by RT-qPCR analysis; assay type: functional, cell-based
[8] = system: HeLa; test: Downregulation of COQ9 mRNA expression in human HeLa cells at 0.1 uM after 24 hrs by RT-qPCR analysis; assay type: functional, cell-based
[9] = system: HeLa; test: Upregulation of nucleus-related genes (GO:0005634) in human HeLa cells measured at 12 hrs; assay type: functional
[10] = system: HeLa; test: Upregulation of nucleoplasm-related genes (GO:0005654) in human HeLa cells measured at 12 hrs; assay type: functional
[11] = system: HeLa; test: Upregulation of transcription/DNA-templated-related genes (GO:0006351) in human HeLa cells measured at 12 hrs; assay type: functional
[12] = system: HeLa; test: Upregulation of cytoplasm-related genes (GO:0005737) in human HeLa cells measured at 12 hrs; assay type: functional
[13] = system: HeLa; test: Upregulation of negative regulation of inclusion body assembly-related genes (GO:0090084) in human HeLa cells measured at 12 hrs; assay type: functional
[14] = system: HeLa; test: Upregulation of microtubule cytoskeleton-related genes (GO:0015630) in human HeLa cells measured at 24 hrs; assay type: functional
[15] = system: HeLa; test: Upregulation of cytoplasm-related genes (GO:0005737) in human HeLa cells measured at 24 hrs; assay type: functional
[16] = system: HeLa; test: Upregulation of mitotic nuclear division-related genes (GO:0007067) in human HeLa cells measured at 24 hrs; assay type: functional
[17] = system: HeLa; test: Upregulation of spindle midzone-related genes (GO:0051233) in human HeLa cells measured at 24 hrs; assay type: functional
[18] = system: HeLa; test: Upregulation of nucleolus-related genes (GO:0005730) in human HeLa cells measured at 24 hrs; assay type: functional
[19] = system: HeLa; test: Upregulation of spindle midzone-related genes (GO:0051233) in human HeLa cells measured at 12 to 24 hrs; assay type: functional
[20] = system: HeLa; test: Upregulation of cytoplasm-related genes (GO:0005737) in human HeLa cells measured at 12 to 24 hrs; assay type: functional
[21] = system: HeLa; test: Upregulation of positive regulation of cytokinesis-related genes (GO:0032467) in human HeLa cells measured at 12 to 24 hrs; assay type: functional
[22] = system: HeLa; test: Downregulation of mitochondrial matrix-related genes (GO:0005759) in human HeLa cells measured at 12 hrs; assay type: functional
[23] = system: HeLa; test: Downregulation of primary cilium-related genes (GO:0072372) in human HeLa cells measured at 12 hrs; assay type: functional
[24] = system: HeLa; test: Downregulation of peroxisome-related genes (GO:0005777) in human HeLa cells measured at 12 hrs; assay type: functional
[25] = system: HeLa; test: Downregulation of serine C-palmitoyltransferase complex-related genes (GO:0017059) in human HeLa cells measured at 12 hrs; assay type: functional
[26] = system: HeLa; test: Downregulation of ciliary tip-related genes (GO:0097542) in human HeLa cells measured at 12 hrs; assay type: functional
[27] = system: HeLa; test: Downregulation of proteinaceous extracellular matrix-related genes (GO:0005578) in human HeLa cells measured at 24 hrs; assay type: functional
[28] = system: HeLa; test: Downregulation of extracellular region-related genes (GO:0005576) in human HeLa cells measured at 24 hrs; assay type: functional
[29] = system: HeLa; test: Downregulation of extracellular exosome-related genes (GO:0070062) in human HeLa cells measured at 24 hrs; assay type: functional
[30] = system: HeLa; test: Downregulation of cell periphery-related genes (GO:0071944) in human HeLa cells measured at 24 hrs; assay type: functional
[31] = system: HeLa; test: Downregulation of progesterone metabolic process-related genes (GO:0042448) in human HeLa cells measured at 24 hrs; assay type: functional
[32] = system: HeLa; test: Downregulation of oxidation-reduction process-related genes (GO:0055114) in human HeLa cells measured at 12 to 24 hrs; assay type: functional; parameters: scale not given: the % may be the effect or the level left
[33] = system: HeLa; test: Downregulation of apical plasma membrane-related genes (GO:0016324) in human HeLa cells measured at 12 to 24 hrs; assay type: functional
[34] = system: HeLa; test: Downregulation of skin development-related genes (GO:0043588) in human HeLa cells measured at 12 to 24 hrs; assay type: functional
[35] = Binding affinity to TGGC of 5'-Biotinylated-dCAG CGT GTG GTT TTT GGCTTT ACC ACA CGC TG-3' (unknown origin) after 30 secs by SPR analysis
[36] = Binding affinity to CGGT of 5'-Biotinylated-dCAG CGT GTG GTT TTC GGTTTT ACC ACA CGC TG-3' (unknown origin) after 30 secs by SPR analysis
[37] = Binding affinity to GGGC of 5'-Biotinylated-dCAG CGT GTG GTT TTG GGCTTT ACC ACA CGC TG-3' (unknown origin) after 30 secs by SPR analysis
[38] = Binding affinity to GCGG of 5'-Biotinylated-dCAG CGT GTG GTT TTG CGGTTT ACC ACA CGC TG-3' (unknown origin) after 30 secs by SPR analysis
[39] = Binding affinity to GGGG of 5'-Biotinylated-dCAG CGT GTG GTT TTG GGGTTT ACC ACA CGC TG-3' (unknown origin) after 30 secs by SPR analysis
[40] = Binding affinity to CGGG of 5'-Biotinylated-dCAG CGT GTG GTT TTC GGGTTT ACC ACA CGC TG-3' (unknown origin) after 30 secs by SPR analysis
[41] = Binding affinity to TCTT of 5'-Biotinylated-dCAG CGT GTG GTT TTT CTTTTT ACC ACA CGC TG-3' (unknown origin) at 1.25 to 20 nM after 30 secs by SPR analysis
[42] = Binding affinity to TTTT of 5'-Biotinylated-dCAG CGT GTG GTT TTT TTTTTT ACC ACA CGC TG-3' (unknown origin) at 1.25 to 20 nM after 30 secs by SPR analysis
[43] = Binding affinity to AAAA of 5'-Biotinylated-dCAG CGT GTG GTT TTA AAATTT ACC ACA CGC TG-3' (unknown origin) at 1.25 to 20 nM after 30 secs by SPR analysis
[44] = Binding affinity to TTTA of 5'-Biotinylated-dCAG CGT GTG GTT TTT TTATTT ACC ACA CGC TG-3' (unknown origin) at 1.25 to 20 nM after 30 secs by SPR analysis
[45] = Binding affinity to CACA of 5'-Biotinylated-dCAG CGT GTG GTT TTC ACATTT ACC ACA CGC TG-3' (unknown origin) at 1.25 to 20 nM after 30 secs by SPR analysis
[46] = Binding affinity to ATTT of 5'-Biotinylated-dCAG CGT GTG GTT TTA TTTTTT ACC ACA CGC TG-3' (unknown origin) at 1.25 to 20 nM after 30 secs by SPR analysis
[47] = Binding affinity to GCGG of 5'-Biotinylated-dCAG CGT GTG GTT TTG C(Me)GGTTT ACC ACA CGC TG-3' (unknown origin) at 1.25 to 20 nM after 30 secs by SPR analysis

SMILES: Cc1ccc2ccc(NC(=O)OCCCN(CCCCCCCCN(CCCOC(=O)Nc3ccc4ccc(C)nc4n3)CCCOC(=O)Nc3ccc4ccc(C)nc4n3)CCCOC(=O)Nc3ccc4ccc(C)nc4n3)nc2n1
- Activity [1]: Active
- Activity [2]: Active
- Activity [3]: Active
- Activity [4]: Active
- Activity [5]: Active
- Activity [6]: Active
- Activity [7]: Active
- Activity [8]: Active
- Activity [9]: 43.78%
- Activity [10]: 26.27%
- Activity [11]: 20.28%
- Activity [12]: 34.56%
- Activity [13]: 2.3%
- Activity [14]: 4.62%
- Activity [15]: 33.85%
- Activity [16]: 7.69%
- Activity [17]: 3.08%
- Activity [18]: 9.23%
- Activity [19]: 5.56%
- Activity [20]: 33.33%
- Activity [21]: 5.55%
- Activity [22]: 3.74%
- Activity [23]: 2.14%
- Activity [24]: 2.14%
- Activity [25]: 1.07%
- Activity [26]: 1.6%
- Activity [27]: 12.24%
- Activity [28]: 22.45%
- Activity [29]: 24.49%
- Activity [30]: 4.08%
- Activity [31]: 4.08%
- Activity [32]: 16.67%
- Activity [33]: 10%
- Activity [34]: 6.67%
- Activity [35]: Dose-dependent effect
- Activity [36]: Dose-dependent effect
- Activity [37]: Dose-dependent effect
- Activity [38]: Dose-dependent effect
- Activity [39]: Dose-dependent effect
- Activity [40]: Dose-dependent effect
- Activity [41]: inactive
- Activity [42]: inactive
- Activity [43]: inactive
- Activity [44]: inactive
- Activity [45]: inactive
- Activity [46]: inactive
- Activity [47]: inactive

From ChEMBL document CHEMBL4177562, “Synthetic ligand promotes gene expression by affecting GC sequence in promoter” (2017)
